# Reference: patent publication US12350250B2, “Aggrelytes for treating ocular conditions” (The Regents of the University of Colorado, a Body Corporate, priority 2022, dated 2025)
# What was measured:
# human lenses [1] = experiment: AcK in WS cortical and nuclear fractions of treated human lenses (LC-MS/MS); settings: 1 mM, 72 h, vs untreated controls
# Protocol: Mouse and human lenses were treated with aggrelytes as described in Example 10. Water-soluble proteins from mouse and human lenses were obtained as described in Example 13. Effects of aggrelyte treatment on AcK-bearing proteins in the WS fractions were evaluated by LC-MS/MS analysis as described in Example 6.
# mouse lenses = experiment: Acetylated proteins in ex vivo treated mouse lenses (Western blot, Example 19); settings: 1 mM, 24 hours
# Protocol: The lenses from Example 18 were homogenized using N2-bubbled 50 mM phosphate buffer, pH 7.4 (0.4 mL per lens), in a hand-held motorized homogenizer. The homogenate was centrifuged at 20,000×g for 20 minutes at 4° C. The resulting supernatant was collected, and its protein content was measured using BCA Protein Assay Kit using BSA as the standard. The soluble protein was subjected to 12% SDS-PAGE under denaturing conditions and the proteins were electrophoretically transferred to a nitrocellulose membrane and blocked with 5% nonfat dry milk. The membrane was then incubated with a monoclonal antibody against N-acetyllysine (AcK antibody @ 1:5,000 dilution; Cell Signaling Technology Catalog #9681S) for 16 hours, followed by horseradish peroxidase (HRP)-conjugated goat anti-mouse IgG (1:5,000 dilution; Cell Signaling Technology Catalog #7076S) for 1 hour. Chemiluminescence was detected using the Enhanced Chemiluminescence Detection Kit. The membrane was stained with Ponceau-S to visualize the proteins and normalize acetyllysine (AcK)-bearing protein to total protein load.
# human lenses [2] = experiment: Stiffness of ex vivo human lenses (Example 22); settings: 250 μM, 48 hours, ex vivo human lenses (47-67 years)
# Protocol: To test the effects of Aggrelyte-2 and Aggrelyte-2A on human lenses (age: 47-67 years), lenses were incubated in media containing freshly dissolved aggrelyte (250 μM) for 48 hours, with aggrelyte replacement after 24 hours. One lens from each donor pair was treated with aggrelyte, while the other was used as the control. After incubation, lens stiffness was measured, as described above in Example 20.
# αB-crystallin (αBC) = experiment: Crystallin levels in solubilized human lens proteins (Western blot), αBC; assay type: biochemical; settings: 500 μM, solubilized proteins of three human lenses; not significant
# Protocol: The contents of crystalline proteins [αA-crystallin (αAC), αB-crystallin (αBC), β-crystallin (βC), and γ-crystallin (γC)] in the solubilized proteins of three human lenses treated with either Aggrelyte-2 or Aggrelyte-2C (500 μM) from Example 4 were determined by Western blot analysis as described for Example 5. Membranes were incubated with antibodies against αAC (1:14,000 dilution; Enzo Life Sciences, Catalog #ADI-SPA-221D), αBC (1:700,000 dilution; University of Iowa), βC (1:14,000 dilution; Santa Cruz Biotechnology, Catalog #sc-22745), and γC (1:7,000 dilution; Santa Cruz Biotechnology, Catalog #sc-22746). The secondary antibodies were HRP-conjugated anti-mouse IgG for αBC and HRP-conjugated […] (Cell Signaling Technology, Catalog #7074S) for αAC, βC, and γC. According to the supplier, the […] detects mostly βB1-crystallin and, to a lesser extent, βA1/3, βA2, βA4, βB2, and βB3-crystallin. The γC antibody reacts with γA, γB, γC, γD, γE, and γF-crystallin.
compound,measurement,setting,value
"COC(=O)[C@H](CSC(C)=O)NC(C)=O [Aggrelyte-2, N,S-diacetyl-L-cysteine methyl ester]","AcK content, cortical protein fraction (LC-MS/MS)",human lenses [1],Significantly higher (p<0.05)
same,"AcK, nuclear fraction (LC-MS/MS)",human lenses [1],not statistically greater
same,"density of acetyl-bearing proteins, fold increase compared to untreated control lenses",mouse lenses,2 fold
same,effect on lens stiffness,human lenses [2],no effect on stiffness
same,"levels of αBC, fold higher than in the Aggrelyte-2C-treated samples",αB-crystallin (αBC),1.1 fold
same,"levels of αBC, fold higher than in the Controls",αB-crystallin (αBC),1.2 fold
